Patent publication US20240246954A1, “COMPOSITIONS AND METHODS FOR INHIBITING KRAS” (TheRas, Inc., priority 2021, published 2024)

Key:
[1] = target: T1, Avi-KRAS G12D (1-169) GppNHp/RAF1 RBD-3×FLAG (52-151) (Homo sapiens, UniProt P01116, G12D); experiment: HTRF Raf1-KRAS G12D-GppNHp disruption assay; assay type: biochemical; conditions: 1 h incubation
T1 construct: Avi-KRAS G12D (1-169) GppNHp
Summary of the method: (§1)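 HTRF read-out (320 nm excitation, 615 nm emission) after two 1 h room-temperature incubations, first with protein mix, then detection reagents. Ten-point dilution series starting at 100 μM; results given as % activity relative to DMSO at 100%.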

[2] = target: T2, Avi-KRAS G12D/Q25A (1-169) GppNHp/3×FLAG-PI3KCA (157-299) (Homo sapiens, UniProt P01116, G12D/Q25A); experiment: HTRF PI3KCA-KRAS G12D/Q25A-GppNHp disruption assay; assay type: biochemical; conditions: 1 h incubation
T2 construct: Avi-KRAS G12D/Q25A (1-169) GppNHp
T2 sequence (P01116 1-169 isoform P01116-2 G12D/Q25A limits assumed): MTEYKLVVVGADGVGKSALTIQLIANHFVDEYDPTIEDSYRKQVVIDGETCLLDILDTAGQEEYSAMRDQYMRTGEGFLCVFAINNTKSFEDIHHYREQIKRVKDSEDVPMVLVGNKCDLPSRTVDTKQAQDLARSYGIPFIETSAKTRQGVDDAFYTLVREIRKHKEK
Summary of the method: as §1

T1 sequence (P01116 1-169 isoform P01116-2 G12D limits assumed): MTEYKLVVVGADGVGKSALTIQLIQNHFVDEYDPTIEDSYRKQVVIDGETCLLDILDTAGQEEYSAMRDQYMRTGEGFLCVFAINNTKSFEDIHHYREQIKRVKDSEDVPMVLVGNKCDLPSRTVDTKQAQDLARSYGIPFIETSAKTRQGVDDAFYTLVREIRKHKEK

SMILES | IC50 [1] | IC50 [2]
NC(=O)N1CCN(c2nc(OCC34CCCN3CCC4)nc3c(F)c(-c4ccc(F)c5sc(N)nc45)c(C(F)(F)F)cc23)CC1 [Compound 165, 4-(7-(2-amino-7-fluorobenzo[d]thiazol-4-yl)-8-fluoro-2-((tetrahydro-1H-pyrrolizin-7a(5H)-yl)methoxy)-6-(trifluoromethyl)quinazolin-4-yl)piperazine-1-carboxamide] | 10 to 30 µM | 10 to 30 µM
CN(c1nc(OC[C@@]23CCCN2C[C@H](F)C3)nc2c(F)c(-c3ccc(F)c4sc(N)nc34)c(C(F)(F)F)cc12)C1C2C[C@H]1CN2 (stereo partly drawn) [Compound 288] | 0.1 to 1 µM | 1 to 10 µM
Nc1nc2c(-c3c(C(F)(F)F)cc4c(N5CCNCC5)nc(OCC56CCCN5CCC6)nc4c3F)ccc(F)c2s1 [Compound 123] | 1 to 10 µM | 1 to 10 µM
CN1CCC[C@H]1COc1nc(N(CCO)C2CNC2)c2cc(Cl)c(-c3ccc(F)c4sc(N)nc34)c(F)c2n1 [Compound 208] | 10 to 30 µM | 10 to 30 µM
CN1CC(F)(F)C[C@H]1COc1nc(NCCN)c2cc(Cl)c(-c3ccc(F)c4sc(N)nc34)c(F)c2n1 [Compound 136] | 10 to 30 µM | 10 to 30 µM
Nc1nc2c(-c3c(Cl)cc4c(N5CCCNCC5)ncnc4c3F)ccc(F)c2s1 [Compound 242] | 10 to 30 µM | 10 to 30 µM
Nc1nc2c(-c3c(C(F)(F)F)cc4c(NC5CC6CC[C@H]5N6)nc(OCC56CCCN5CCC6)nc4c3F)ccc(F)c2s1 (stereo partly drawn) [Compound 265] | 0.1 to 1 µM | 1 to 10 µM
CN1CCC[C@H]1COc1nc(N2CCNCC2)c2cc(OC(F)(F)F)c(-c3ccc(F)c4sc(N)nc34)c(F)c2n1 [Compound 191] | 1 to 10 µM | 1 to 10 µM
CN1CCC[C@H]1COc1nc(N2CCNCC2)c2cc(-c3ccoc3)c(-c3ccc(F)c4sc(N)nc34)c(F)c2n1 [Compound 143, 7-fluoro-4-(8-fluoro-6-(furan-3-yl)-2-(((S)-1-methylpyrrolidin-2-yl)methoxy)-4-(piperazin-1-yl)quinazolin-7-yl)benzo[d]thiazol-2-amine] | 10 to 30 µM | 10 to 30 µM
CN1CCC[C@H]1COc1nc(NCCN)c2cc(Cl)c(-c3cccc4nc(N)sc34)c(F)c2n1 [Compound 100] | 10 to 30 µM | 10 to 30 µM
CN(c1nc(OCC23CCCN2CCC3)nc2c(F)c(-c3ccc(F)c4sc(N)nc34)c(C(F)(F)F)cc12)[C@@H]1CCN(C(N)=O)C1 (atropisomer, axis not shown) [Compound 279] | 10 to 30 µM | 1 to 10 µM
Nc1nc2c(-c3c(C4CCC4)cc4c(N5CCNCC5)ncnc4c3F)ccc(F)c2s1 [Compound 154] | 10 to 30 µM | 10 to 30 µM
C[C@@H]1CN(c2nc(OC[C@@]34CCCN3C[C@@H](F)C4)nc3c(F)c(-c4ccc(F)c5sc(N)nc45)c(C(F)(F)F)cc23)CCN1 [Compound 225] | 1 to 10 µM | 10 to 30 µM
CN1CCC[C@H]1COc1nc(N2CCN(C(=O)CN)CC2)c2cc(Cl)c(-c3ccc(F)c4sc(N)nc34)c(F)c2n1 [Compound 108] | 10 to 30 µM | 10 to 30 µM
CN(c1nc(OCC23CCCN2CCC3)nc2c(F)c(-c3ccc(F)c4sc(N)nc34)c(Cl)cc12)C1CN(C(=O)CN)C1 [Compound 164] | 10 to 30 µM | 10 to 30 µM
NC(=O)N1CCN(c2nc(OCC34CCCN3CCC4)nc3c(F)c(-c4ccc(F)c5sc(N)nc45)c(Cl)cc23)CC1 [Compound 162] | 10 to 30 µM | 10 to 30 µM
CN(c1nc(OCC23CCCN2CCC3)nc2c(F)c(-c3ccc(F)c4sc(N)nc34)c(C(F)(F)F)cc12)[C@H]1C[C@@H]2CC[C@H]1N2 (atropisomer, axis not shown) [Compound 270] | 1 to 10 µM | 10 to 30 µM
Nc1nc2c(-c3c(C(F)(F)F)cc4c(NC5CN(C(=O)C6CN6)C5)nc(OCC56CCCN5CCC6)nc4c3F)ccc(F)c2s1 (stereo not drawn) [Compound 235] | 1 to 10 µM | 10 to 30 µM
CN(c1nc(OC[C@@H]2CCCN2C)nc2c(F)c(-c3ccc(F)c4sc(N)nc34)c(Cl)cc12)C1CN(C(=O)CN)C1 [Compound 147] | 10 to 30 µM | 10 to 30 µM
CN1CCC[C@H]1COc1nc(NCCN)c2cc(Cl)c(-c3cccc4nc(N)cn34)c(F)c2n1 [Compound 93] | 10 to 30 µM | 10 to 30 µM
CO[C@@H]1C[C@@H](COc2nc(N3CCNCC3)c3cc(Cl)c(-c4ccc(F)c5sc(N)nc45)c(F)c3n2)N(C)C1 [Compound 69] | 10 to 30 µM | 10 to 30 µM
CN1C[C@H](F)C[C@H]1COc1nc(N2CCNCC2)c2cc(Cl)c(-c3ccc(F)c4sc(N)nc34)c(F)c2n1 [Compound 128] | 10 to 30 µM | 10 to 30 µM
CN1CCC(c2nc(N3CCNCC3)c3cc(Cl)c(-c4ccc(F)c5sc(N)nc45)c(F)c3n2)CC1 [Compound 101] | 10 to 30 µM | 10 to 30 µM
CCN(c1nc(OC[C@@H]2CCCN2C)nc2c(F)c(-c3ccc(F)c4sc(N)nc34)c(C(F)(F)F)cc12)C1CNC1 [Compound 170] | 10 to 30 µM | 10 to 30 µM

SMILES | IC50 [1] | IC50 [2]
CC(=O)N1CC(Nc2nc(OC[C@@H]3CCCN3C)nc3c(F)c(-c4ccc(F)c5sc(N)nc45)c(Cl)cc23)C1 [Compound 67] | 10 to 30 µM | 10 to 30 µM
Nc1nc2c(-c3c(C(F)(F)F)cc4c(NC5C[C@H]6CCC5N6)nc(OCC56CCCN5CCC6)nc4c3F)ccc(F)c2s1 (stereo partly drawn) [Compound 286] | 0.1 to 1 µM | 0.1 to 1 µM
CC1(Nc2nc(OCC34CCCN3CCC4)nc3c(F)c(-c4ccc(F)c5sc(N)nc45)c(Cl)cc23)CNC1 [Compound 190] | 1 to 10 µM | 1 to 10 µM
Nc1nc2c(-c3c(C(F)(F)F)cc4c(N5CCNCC5)nc(OCC56CCCN5CCC6)nc4c3F)ccc(F)c2o1 [Compound 189] | 1 to 10 µM | 1 to 10 µM
CN1C[C@H](OC(F)F)C[C@H]1COc1nc(NC2CNC2)c2cc(Cl)c(-c3ccc(F)c4sc(N)nc34)c(F)c2n1 [Compound 132] | 1 to 10 µM | 1 to 10 µM
CN1CCC[C@H]1COc1nc(N[C@H]2C[C@H](N)C2)c2cc(Cl)c(-c3ccc(F)c4sc(N)nc34)c(F)c2n1 (atropisomer, axis not shown) [Compound 83] | 1 to 10 µM | 1 to 10 µM
CN1CCC[C@H]1COc1nc(NC2CCCNC2)c2cc(Cl)c(-c3ccc(F)c4sc(N)nc34)c(F)c2n1 (stereo partly drawn) [Compound 99] | 1 to 10 µM | 10 to 30 µM
CO[C@@H]1C[C@@H](COc2nc(NC3CNC3)c3cc(Cl)c(-c4ccc(F)c5sc(N)nc45)c(F)c3n2)N(C)C1 [Compound 73] | 1 to 10 µM | 10 to 30 µM
Oc1cc(-c2c(Cl)cc3c(N4CC5CCC(C4)N5)nc(OCC45CCCN4CCC5)nc3c2F)c2ccccc2c1 [Compound 161] | 1 to 10 µM | 1 to 10 µM
CC1(C)CN2CCCC2(COc2nc(N3CCNCC3)c3cc(C(F)(F)F)c(-c4ccc(F)c5sc(N)nc45)c(F)c3n2)C1 (stereo not drawn) [Compound 198] | 1 to 10 µM | 1 to 10 µM
Nc1nc2c(-c3c(C(F)F)cc4c(N5CCNCC5)nc(OCC56CCCN5CCC6)nc4c3F)ccc(F)c2s1 [Compound 227] | 1 to 10 µM | 1 to 10 µM
CN(c1nc(OC[C@@H]2C[C@@H](F)CN2C)nc2c(F)c(-c3ccc(F)c4sc(N)nc34)c(-c3ccoc3)cc12)C1CN(C(=O)CN)C1 [Compound 150] | 10 to 30 µM | 10 to 30 µM
Nc1nc2c(-c3c(Cl)cc4c(NC5CNC5)nc(O)nc4c3F)ccc(F)c2s1 [Compound 90] | 10 to 30 µM | 10 to 30 µM
NC(=O)N1CCN(c2nc(OCC34CCCN3CCC4)nc3c(F)c(-c4ccc(F)c5sc(N)nc45)c(-c4ccoc4)cc23)CC1 [Compound 186] | 10 to 30 µM | 10 to 30 µM
CN(c1nc(OCC23CCCN2CCC3)nc2c(F)c(-c3ccc(F)c4sc(N)nc34)c(-c3ccoc3)cc12)C1CN(C(=O)CN)C1 [Compound 163] | 10 to 30 µM | 10 to 30 µM
CC(=O)NCCNc1nc(OC[C@@H]2CCCN2C)nc2c(F)c(-c3ccc(F)c4sc(N)nc34)c(Cl)cc12 [Compound 76] | 10 to 30 µM | 10 to 30 µM
CN(c1nc(OCC23CCCN2CCC3)nc2c(F)c(-c3ccc(F)c4sc(N)nc34)c(C(F)(F)F)cc12)C1CC2CC[C@@H](C1)N2 (stereo partly drawn) [Compound 268] | 1 to 10 µM | 1 to 10 µM
CN1C[C@H](F)C[C@H]1COc1nc(NC2CN(C(=O)CN)C2)c2cc(-c3ccoc3)c(-c3ccc(F)c4sc(N)nc34)c(F)c2n1 [Compound 137] | 1 to 10 µM | 10 to 30 µM
CN1C[C@H](F)C[C@H]1COc1nc(N2CCNCC2)c2cc(-c3ccoc3)c(-c3ccc(F)c4sc(N)nc34)c(F)c2n1 [Compound 141] | 10 to 30 µM | 10 to 30 µM
CCc1cc2c(N3CCNCC3)nc(OC[C@@H]3CCCN3C)nc2c(F)c1-c1ccc(F)c2sc(N)nc12 [Compound 177, 4-(6-ethyl-8-fluoro-2-(((S)-1-methylpyrrolidin-2-yl)methoxy)-4-(piperazin-1-yl)quinazolin-7-yl)-7-fluorobenzo[d]thiazol-2-amine] | 10 to 30 µM | 10 to 30 µM
CN1CCC[C@H]1COc1nc(NCCN)c2cc(Cl)c(-c3cccc4nc(N)n(C)c34)c(F)c2n1 [Compound 86] | 10 to 30 µM | 10 to 30 µM
CO[C@@H]1C[C@@H](COc2nc(N3CC4CCC(C3)N4)c3cc(C(F)(F)F)c(-c4ccc(F)c5sc(N)nc45)c(F)c3n2)N(C)C1 [Compound 284] | 0.1 to 1 µM | 0.1 to 1 µM
CN1CCC[C@H]1COc1nc(NC2CN(C(=O)CN)C2)c2cc(-c3ccoc3)c(-c3ccc(F)c4sc(N)nc34)c(F)c2n1 [Compound 146] | 1 to 10 µM | 10 to 30 µM
CN1CCC[C@H]1COc1nc(N2CCNCC2)c2cc(C(F)(F)F)c(-c3ccc(F)c4sc(N)nc34)c(F)c2n1 [Compound 115] | 1 to 10 µM | 1 to 10 µM
